Several values for one entry are separate records, joined by “and”; a condition that tells them apart may be missing. Equal entries are not always repeated.
Tests used:
[1] = tested on: NOD.hALOX12 mice; test: Diabetes treatment (reversal) in diabetic female NOD.hALOX12 mice; format: in vivo, mouse; conditions: 30 mg/kg/day p.o. up to 6 weeks
Method: (§1) Mice were followed for diabetes development (blood glucose ≥250 mg/dL on 2 consecutive days) until 25 weeks of age (Figure 3A).
For diabetes treatment studies, female NOD.hALOX12 mice were followed for random-fed blood glucose from 12 to 20 weeks of age.

[2] = tested on: NOD.hALOX12 mice; test: NanoString spatial proteomics of insulitic and insulin-positive areas in NOD.hALOX12 mice; format: in vivo, mouse
From the text: To specifically interrogate the nature of immune cells within the insulitic region, we performed spatial tissue-based proteomics (NanoString). We used insulin immunostaining and nuclei staining to identify β cells and the surrounding insulitic regions. Prevalidated antibodies in the GeoMx mouse immune panel were used to probe for immune cell subtypes in the peri-islet insulitic region and within the islet. […] This reduction in myeloid cell populations was accompanied by a decrease in T and B cells populations, including CD4^+, CD3^+, CD8^+, and CD19^+ cells (Figure 2F and Supplemental Figure 2, A and B). […] Enhanced PD-L1/PD-1 interactions shift T cells to less aggressive, more regulatory phenotypes ([21]).
Paraffin embedded pancreata were used for NanoString spatial proteomics analysis. Tissues were stained with morphology markers: AF-647–conjugated insulin (Cell Signaling Technology, 9008s; 1:400) and nuclei marker (SYTO13). Tissues were hybridized using a pre-validated mouse GeoMx Immune cell panel (NanoString, GMX-PROCONCT-MICP) comprising the following markers: PD-1, CD11c, CD8a, PanCk, MHC II, CD19, CTLA4, SMA, CD11b, CD3e, fibronectin, Ki-67, CD4, GZMB, F4/80, CD45, PD-L1; housekeeping genes: histone H3, S6, GAPDH; and IgG antibodies: Rb IgG, Rat IgG2a, and Rat IgG2b for background subtraction. All markers were conjugated to unique UV-photocleavable oligos for indexing. At least 5 or 6 islets with insulitis were chosen as regions of interest (ROIs) per mouse based on the morphology markers (insulin and nuclei). The ROIs were segmented into insulitic region and insulin^+ region for each islet. Oligonucleotides from the segmented ROIs were photocleaved, collected in a 96-well plate, and reads were counted using nCounter (NanoString). Scaling was performed to normalize for any differences in tissue surface area and depth. After scaling, reads were normalized to housekeeping markers and background was subtracted using IgG markers.

[3] = tested on: BMDMs from NOD.hALOX12 mice; test: RNA sequencing of M0 and M1-like polarized BMDMs; format: cell-based, mouse
From the text: BMDMs were unpolarized (M0) or polarized to an M1-like state (with lipopolysaccharide and IFN-γ) to mimic the inflammatory state that might be observed during T1D pathogenesis.
These common genes mapped to pathways related to cytokine-mediated signaling, T cell activation, and antigen processing and presentation (Supplemental Figure 3B). […] The 507 genes altered with vehicle treatment mapped to GO pathways related to the M1 polarization phenotype (myeloid cell differentiation, immune response, response to cytokines) and pathways related to oxidative stress (cell redox homeostasis, response to hydrogen peroxides) (Figure 5E). These pathways were not identified in the genes that were differentially expressed during VLX-1005 treatment.
BMDMs were isolated from 8-week-old NOD.hALOX12 mice as described previously ([2]). The isolated BMDMs were cultured for 7 days in complete medium (RPMI 1640 containing 10% FBS, 10 mM HEPES, and 100 U/mL penicillin/streptomycin) supplemented with 10 ng/mL M-CSF. […] After 1-hour pretreatment, the BMDMs were further stimulated with 10 ng/mL LPS and 25 ng/mL IFN-γ for 18 hours for M1-like polarization. RNA was isolated and used for sequencing.
RNA extraction was performed using RLT Buffer, according to the manufacturer’s instructions (Qiagen). Samples were submitted for library generation and sequencing by the University of Chicago sequencing core using a NovaSeq 6000 (Illumina). Data were analyzed using Galaxy (https://usegalaxy.org/). Reads were aligned to the Mus musculus genome build mm10 using HISAT2 (https://daehwankimlab.github.io/hisat2/). Individual sample reads were quantified using HTseq-count and normalized using DESeq2 (https://bioconductor.org/packages/release/bioc/html/DESeq2.html). DEseq2 was also used to calculate FCs and P values and to perform optional covariate correction. GO was used for pathway analysis.

[4] = tested on: NOD.hALOX12 mice; test: Diabetes incidence (prevention) in NOD.hALOX12 mice; format: in vivo, mouse; conditions: 30 mg/kg p.o. daily, 6–10 weeks of age
Method: as §1
Diabetes incidence was determined by observing 2 consecutive blood glucose values greater than 250 mg/dL.

[5] = tested on: NOD.hALOX12 mice; test: Insulitis scoring and pancreas immunostaining (CD3, B220, F4/80, MAC2) in NOD.hALOX12 mice; format: in vivo, mouse
[6] = Insulitic Area, Fig 2F source data, individual values
[7] = female NOD.hALOX12 mice, 30 mg/kg p.o., 4 weeks
[8] = sheet SFig 2A, individual regions of interest
[9] = sheet Fig 5G, 4 replicates, listed as VLX
[10] = sheet Fig 2G, pancreas immunostaining, individual animals, listed as VLX

Structure (SMILES): COc1cccc(CNc2ccc(S(=O)(=O)Nc3nc4ccccc4s3)cc2)c1O [VLX-1005]
- Blood glucose levels vs vehicle in established diabetes [1]: relative reductions in blood glucose levels
- Reversal of established diabetes [1]: did not observe a reversal in diabetes
- CD11b [2, 6]: 5.147 and 5.277 and 5.327 and 5.94 and 5.07 and 5.565 and 5.634 and 5.068 and 4.855 and 6.029
- CD11c [2, 6]: 2.876 and 1.502 and 2.598 and 4.232 and 2.537 and 2.93 and 3.146 and 2.8254 and 2.641 and 4.743
- CD45 (first CD45 row) [2, 6]: 5.25 and 3.49 and 3.636 and 8.487 and 3.645 and 3.942 and 4.828 and 3.892 and 3.054 and 8.111
- CD45 (second CD45 row) [2, 6]: -0.2135 and 0.0264 and 0.3853 and 4.031 and -1.253 and 0.3826 and 0.2212 and -1.155 and 0.06453 and 3.867
- CTLA4 [2, 6]: 1.939 and 2.368 and 2.417 and 1.307 and 2.276 and 2.4212 and 3.583 and 2.587 and 3.2171 and 2.563
- F4/80 [2, 6]: 0.2536 and 0.7983 and 1.224 and 1.023 and -0.1728 and 1.356 and 2.254 and 0.8327 and -0.1455 and 1.282
- GZMB [2, 6]: 4.352 and 4.4072 and 5.2506 and 2.9798 and 5.432 and 6.733 and 6.076 and 5.882 and 4.529 and 3.344
- MHC II [2, 6]: -0.6174 and 1.207 and 0.8883 and -0.3662 and -0.4066 and -0.144 and -0.3371 and 1.073 and -0.07508 and -1.247
- PD-1 [2, 6]: -0.3236 and 0.1793 and 1.041 and 1.538 and -1.244 and -0.5413 and -0.07496 and 0.52 and -0.1742 and 0.5415
- PD-L1 [2, 6]: 1.897 and 1.722 and 1.56 and 0.2193 and 1.6509 and 2.371 and 2.045 and 2.4831 and 1.059 and 0.2909
- Myeloid population subtypes (macrophages, dendritic cells) in insulitic and islet areas [2, 7]: notable reduction
- PD-L1 levels (spatial proteomics) [2, 7]: increased levels
- T and B cell populations (CD4+, CD3+, CD8+, CD19+) in insulitic and islet areas [2, 7]: decrease
- CD4 [2, 8]: 0.3826 and 0.2212 and -1.155 and 0.06453 and 3.867 and -0.2135 and 0.0264 and 0.3853 and 4.031 and -1.253
- CD8 [2, 8]: 1.856 and 1.666 and 1.577 and 1.141 and 2.8916 and 1.46 and 1.4593 and 2.166 and 2.266 and 1.44
- CD11b [2, 8]: 5.565 and 5.634 and 5.068 and 4.855 and 6.029 and 5.147 and 5.277 and 5.327 and 5.94 and 5.07
- CD11c [2, 8]: 2.93 and 3.146 and 2.8254 and 2.641 and 4.743 and 2.876 and 1.502 and 2.598 and 4.232 and 2.537
- CD19 [2, 8]: 0.2718 and 0.8536 and 0.6292 and 1.249 and 2.864 and 0.1873 and -0.4029 and 0.4865 and 2.831 and -0.3159
- CD-3e [2, 8]: 4.049 and 3.547 and 4.013 and 3.889 and 3.319 and 3.27 and 3.43 and 3.812 and 3.482 and 3.738
- CTLA4 [2, 8]: 2.4212 and 3.583 and 2.587 and 3.2171 and 2.563 and 1.939 and 2.368 and 2.417 and 1.307 and 2.276
- F4/80 [2, 8]: 1.356 and 2.254 and 0.8327 and -0.1455 and 1.282 and 0.2536 and 0.7983 and 1.224 and 1.023 and -0.1728
- GZMB [2, 8]: 6.733 and 6.076 and 5.882 and 4.529 and 3.344 and 4.352 and 4.4072 and 5.2506 and 2.9798 and 5.432
- PD-1 [2, 8]: -0.5413 and -0.07496 and 0.52 and -0.1742 and 0.5415 and -0.3236 and 0.1793 and 1.041 and 1.538 and -1.244
- PD-L1 [2, 8]: 2.371 and 2.045 and 2.4831 and 1.059 and 0.2909 and 1.897 and 1.722 and 1.56 and 0.2193 and 1.6509
- Ki67 ([2]; sheet SFig 2B, individual regions of interest): 1.4 and 1.3004
- Magnitude of changes of IFN pathway genes vs vehicle in M1-like BMDMs ([3]; 10 μM, P < 0.05 by t test): augmented significantly
- Adar expression (heat map value) [3, 9]: 1.762 and 1.682 and 1.654 and 1.2
- Arrdc4 expression (heat map value) [3, 9]: 1.769 and 1.684 and 1.6721 and 1.333
- Ddx3x expression (heat map value) [3, 9]: 0.9319 and 0.8926 and 0.8886 and 0.8518
- Dhx58 expression (heat map value) [3, 9]: 2.321 and 1.936 and 1.912 and 1.006
- Gigyf2 expression (heat map value) [3, 9]: 0.9359 and 0.7566 and 0.751 and 0.4484
- Kat5 expression (heat map value) [3, 9]: 0.9038 and 0.7157 and 0.4242 (2×)
- Lrrfip2 expression (heat map value) [3, 9]: 1.898 and 1.808 and 1.658 and 1.413
- Mark4 expression (heat map value) [3, 9]: 1.966 and 1.936 and 1.657 and 1.006
- Mmp12 expression (heat map value) [3, 9]: 0.8105 and 0.4921 (3×)
- Ninj1 expression (heat map value) [3, 9]: 1.769 and 1.701 and 1.685 and 1.401
- Nlrp3 expression (heat map value) [3, 9]: 2.077 and 1.964 and 1.718 and 1.337
- Nono expression (heat map value) [3, 9]: 1.2 and 1.151 and 1.126 and 1.119
- Oas1e expression (heat map value) [3, 9]: 2.321 and 1.949 and 1.675 and 1.657
- Pou2f2 expression (heat map value) [3, 9]: 1.6038 and 1.537 and 1.347 and 1.324
- Riok3 expression (heat map value) [3, 9]: 1.411 and 1.279 and 1.172 and 1.109
- Srebf1 expression (heat map value) [3, 9]: 0.9499 and 0.826 and 0.6628 and 0.3958
- Tank expression (heat map value) [3, 9]: 2.305 and 1.708 and 1.675 and 0.8815
- Tlr6 expression (heat map value) [3, 9]: 2.235 and 2.002 and 1.489 and 1.453
- Tmem126a expression (heat map value) [3, 9]: 0.7845 and 0.7743 and 0.7659 and 0.465
- Tomm70a expression (heat map value) [3, 9]: 1.572 and 1.428 and 1.219 and 1.127
- Ttll12 expression (heat map value) [3, 9]: 2.1636 and 1.773 and 1.7 and 1.671
- Ube2k expression (heat map value) [3, 9]: 1.475 and 1.413 and 1.263 and 1.205
- Mice protected from diabetes development at 25 weeks of age ([4]; female NOD.hALOX12 mice): 60%
- Mice protected from diabetes development at 25 weeks of age ([4]; male NOD.hALOX12 mice): 75%
- T and B cell infiltration (pancreas pathology) [5, 7]: reduced T and B cell infiltration
- T cells (CD3+), macrophages (F4/80+), activated macrophages (Mac2+) by immunohistochemistry [5, 7]: reductions
- Extent of insulitis (insulitis scoring) vs vehicle ([5]; female NOD.hALOX12 mice, 30 mg/kg p.o., 4 weeks (6–10 weeks of age)): significantly reduced
- Insulitis score (Fig 2E) ([5]; individual animals, listed as VLX): 1.633 and 1.787 and 1.784 and 1.529 and 1.472
- CD3 [5, 10]: 1.368e-5 and 2.024e-5 and 0.0002739 and 0 and 2.686e-5
- F4/80 [5, 10]: 0.00043 and 0.0003528 and 0.0003661 and 0.0004659 and 0.0002593
- F4/80 (second Veh/VLX pair) [5, 10]: 0.000451 and 0.000344 and 0.000488 and 0.0002845

— publication PMC11665553, “12-Lipoxygenase inhibition delays onset of autoimmune diabetes in human gene replacement mice” (JCI Insight, 2024)
